In brackets after ≈: the same amount, converted by molar mass. Several values for one entry are separate records, joined by “and”; a condition that tells them apart may be missing. Identical values can stand only once. Counter-ions that a name gives are not always drawn. Like-named read-outs stand apart in the source and are kept apart here.
Key:
Ent. cloacae A9657 = assay: Minimum Inhibitory Concentration, tube dilution; conditions: Enterobacter cloacae
D. pneumoniae A9585 = assay: Minimum Inhibitory Concentration, tube dilution; conditions: Streptococcus pneumoniae
S. aureus BX1633-2 A9606 = assay: Minimum Inhibitory Concentration, tube dilution; format: cell-based; conditions: Staphylococcus aureus
[1] = test system: S. aureus meth.-resist. A15097; assay: Minimum Inhibitory Concentration, tube dilution; format: cell-based; conditions: Staphylococcus aureus
Ser. marcescens A20019 = assay: Minimum Inhibitory Concentration, tube dilution; conditions: Serratia marcescens
Ent. cloacae A9656 = assay: Minimum Inhibitory Concentration, tube dilution; conditions: Enterobacter cloacae
Ent. cloacae A9659 = assay: Minimum Inhibitory Concentration, tube dilution; conditions: Enterobacter cloacae
Str. pyogenes A9604 = assay: Minimum Inhibitory Concentration, tube dilution; format: cell-based; conditions: Streptococcus pyogenes
Text: *50% Nutrient Broth - 45% Antibiotic Assay Broth

S. aureus Smith A9537 = assay: Minimum Inhibitory Concentration, tube dilution; format: cell-based; conditions: Staphylococcus aureus, at 10^-^4 dilution, overnight, 37° C.
E. coli Juhl A15119 = assay: Minimum Inhibitory Concentration, tube dilution; conditions: Escherichia coli, JUHLA15119
E. coli A9675 = assay: Minimum Inhibitory Concentration, tube dilution; format: cell-based; conditions: Escherichia coli
K. pneumoniae A9977 = assay: Minimum Inhibitory Concentration, tube dilution; conditions: Klebsiella pneumoniae
K. pneumoniae A15130 = assay: Minimum Inhibitory Concentration, tube dilution; conditions: Klebsiella pneumoniae
Sal. enteritidis A9531 = assay: Minimum Inhibitory Concentration, tube dilution; format: cell-based; conditions: Salmonella enterica
Pr. mirabilis A9900 = assay: Minimum Inhibitory Concentration, tube dilution; conditions: Proteus mirabilis
Pr. morganii A15153 = assay: Minimum Inhibitory Concentration, tube dilution; conditions: Morganella morganii
[2] = Blood levels in mice after intramuscular administration; conditions: mouse, im, 10 mg/kg
[3] = Blood levels in mice after oral administration; conditions: mouse, 100 mg/kg
Ps. aeruginosa A9843A = assay: microbe, parasite or virus in culture; conditions: Pseudomonas aeruginosa
[4] = known forms; cannot be administered intravenously; cited from earlier work
vein and muscle = conditions: in vivo
Heat stability of solids = format: physicochemical; conditions: for Stability (loss): 1 month at 56° C., 43800 min; for Heat stability (loss): Procedure D
[5] = test system: Gram-positive and Gram-negative organisms; conditions: oral and parenteral; cited from earlier work
[6] = Stability of aqueous solutions; format: physicochemical; conditions: alkaline pH, i.e. pH~7.0 or higher
Text: A. Stability of Aqueous Solutions of Amorphous
Monohydrate and Sodium Levulinate Mixture at […]

pH of solution = format: physicochemical
physchem = conditions: water
[7] = Solubility in water / concentration of true solutions
[8] = BX16332A9606, at 10^-^2 dil'n, overnight, 37° C.
[9] = +5% serum, 50% Nutrient Broth - 45% Antibiotic Assay Broth, overnight, 37° C., read-out: M.I.C.
[10] = at 10^-^4 dilution, overnight, 37° C., read-out: M.I.C.

## CC1=C(C(=O)O)N2C(=O)[C@@H](NC(=O)[C@H](N)c3ccccc3)[C@H]2SC1 [Cephalexin]
Ent. cloacae A9657
  MIC: 4 mg/L (≈ 11.5 µM)
D. pneumoniae A9585
  MIC: 1 mg/L (≈ 2.88 µM)
S. aureus BX1633-2 A9606; BX16332A9606, at 10^-^3 dil'n, overnight, 37° C., read-out: M.I.C.
  MIC: 2 mg/L (≈ 5.76 µM)
[1]; at 10^-^3 dil'n, 37° C
  MIC: 16 mg/L (≈ 46.1 µM)
[1]; at 10^-^3 dil'n, 28° C, read-out: M.I.C.
  MIC: 32 mg/L (≈ 92.1 µM)
Ser. marcescens A20019
  MIC: > 125 mg/L
Ent. cloacae A9656
  MIC: > 125 mg/L
Ent. cloacae A9659
  MIC: > 125 mg/L
Str. pyogenes A9604
  MIC: 0.5 mg/L (≈ 1.44 µM)
S. aureus Smith A9537; SMITHA9537, +50% serum, read-out: M.I.C.
  MIC: 2 mg/L (≈ 5.76 µM)
S. aureus Smith A9537; SMITHA9537, read-out: M.I.C.
  MIC: 1 mg/L (≈ 2.88 µM)
E. coli Juhl A15119
  MIC: 8 mg/L (≈ 23 µM)
E. coli A9675
  MIC: 16 mg/L (≈ 46.1 µM)
K. pneumoniae A9977
  MIC: 4 mg/L (≈ 11.5 µM)
K. pneumoniae A15130
  MIC: 8 mg/L (≈ 23 µM)
Sal. enteritidis A9531
  MIC: 4 mg/L (≈ 11.5 µM)
Pr. mirabilis A9900
  MIC: 4 mg/L (≈ 11.5 µM)

## N[C@@H](C(=O)NC1C(=O)N2C(C(=O)O)=C(CSc3cnn[nH]3)CSC12)c1ccc(O)cc1 (stereo partly drawn) [Cephalosporin 1,2-propylene glycolate, 7-[D-α-amino-α-(p-hydroxyphenyl)acetamido]-3-(1,2,3-triazol-5-ylthiomethyl)-3-cephem-4-carboxylic acid 1,2-propylene glycolate]
Pr. morganii A15153
  MIC: 32 mg/L (≈ 69.2 µM)
Ent. cloacae A9657
  MIC: 1 mg/L (≈ 2.16 µM)
D. pneumoniae A9585
  MIC: 0.13 mg/L (≈ 0.281 µM)
[2]
  concentration at 0.5 h: 17.4 µg/mL
  concentration at 1 h: 12.3 µg/mL
  concentration at 1.5 h: 9 µg/mL
S. aureus BX1633-2 A9606; [8]
  MIC: 2 mg/L (≈ 4.32 µM)
S. aureus BX1633-2 A9606; BX16332A9606, at 10^-^3 dil'n, overnight, 37° C.
  MIC: 0.5 mg/L (≈ 1.08 µM)
Ser. marcescens A20019
  MIC: > 125 mg/L
Ent. cloacae A9656
  MIC: > 125 mg/L
[3]
  concentration at 1 h: 44.7 µg/mL
  concentration at 2 h: 26.6 µg/mL
  concentration at 3.5 h: 9.7 µg/mL
  concentration at 9.5 h: 45.8 µg/mL
Ps. aeruginosa A9843A
  MIC: > 125 mg/L
Ent. cloacae A9659
  MIC: 32 mg/L (≈ 69.2 µM)
Bio-assay
  Bio-assay: 880-890 units/mg.
Str. pyogenes A9604; [9]
  MIC: 0.03 mg/L (≈ 0.0649 µM)
S. aureus Smith A9537; SMITHA9537, +50% serum
  MIC: 2 mg/L (≈ 4.32 µM)
S. aureus Smith A9537; SMITHA9537, read-out: M.I.C.
  MIC: 0.25 mg/L (≈ 0.541 µM)
E. coli Juhl A15119
  MIC: 1 mg/L (≈ 2.16 µM)
E. coli A9675; [10]
  MIC: 4 mg/L (≈ 8.65 µM)
[4]
  solubility in water: relatively low solubility in water
K. pneumoniae A9977
  MIC: 1 mg/L (≈ 2.16 µM)
K. pneumoniae A15130
  MIC: 2 mg/L (≈ 4.32 µM)
Sal. enteritidis A9531
  MIC: 0.5 mg/L (≈ 1.08 µM)
Pr. mirabilis A9900
  MIC: 0.5 mg/L (≈ 1.08 µM)

## CC(=O)OCC1=C(C(=O)O)N2C(=O)[C@@H](NC(=O)Cc3cccs3)[C@H]2SC1 [Cephalothin]
Pr. morganii A15153
  MIC: > 125 mg/L
Ent. cloacae A9657
  MIC: 2 mg/L (≈ 5.04 µM)
S. aureus BX1633-2 A9606; BX16332A9606
  MIC: 0.25 mg/L (≈ 0.631 µM)
S. aureus BX1633-2 A9606; [8]
  MIC: 0.25 mg/L (≈ 0.631 µM)
[1]
  MIC: 4 mg/L (≈ 10.1 µM)
[1]; at 10^-^3 dil'n, 37° C
  MIC: 1 mg/L (≈ 2.52 µM)
Ser. marcescens A20019
  MIC: > 125 mg/L
Ent. cloacae A9656
  MIC: > 125 mg/L
Ps. aeruginosa A9843A
  MIC: > 125 mg/L
Ent. cloacae A9659
  MIC: > 125 mg/L
Str. pyogenes A9604; [9]
  MIC: 0.06 mg/L (≈ 0.151 µM)
S. aureus Smith A9537; SMITHA9537, +50% serum
  MIC: 0.5 mg/L (≈ 1.26 µM)
E. coli Juhl A15119
  MIC: 8 mg/L (≈ 20.2 µM)
E. coli A9675
  MIC: 32 mg/L (≈ 80.7 µM)
K. pneumoniae A9977
  MIC: 2 mg/L (≈ 5.04 µM)
K. pneumoniae A15130
  MIC: 16 mg/L (≈ 40.4 µM)
Sal. enteritidis A9531; [10]
  MIC: 0.06 mg/L (≈ 0.151 µM)
Pr. mirabilis A9900
  MIC: 1 mg/L (≈ 2.52 µM)

## N[C@@H](C(=O)NC1C(=O)N2C(C(=O)O)=C(CSc3cnn[nH]3)CSC12)c1ccc(O)cc1 (stereo partly drawn) [amorphous mono-hydrochloride, 7[D-α-amino-α-(p-hydroxyphenyl)acetamido]-3-(1,2,3-triazol-5-ylthiomethyl)-3-cephem-4-carboxylic acid amorphous mono-hydrochloride]
Vein and muscle
  venous irritation and muscle damage: significant venous irritation and muscle damage
Heat stability of solids; Procedure Da
  Stability (loss): Less than 10%
Heat stability of solids; Procedure Db
  Stability (loss): Less than 10%
Heat stability of solids; 56° C., 4 weeks, 40320 min
  Heat stability (loss): 1-6%
Heat stability of solids; 100° C., 24 hours
  Heat stability (loss): 7-14%
Heat stability of solids; 100° C., 48 hours
  Heat stability (loss): 10-15%
Bio-assay; mono-hydrochloride
  Bio-assay: 900 µg/mg and 820 to 850 µg/mg

## N[C@@H](C(=O)NC1C(=O)N2C(C(=O)O)=C(CSc3cnn[nH]3)CSC12)c1ccc(O)cc1 (stereo partly drawn) [amorphous monohydrate, 7-[D-α-amino-α-(p-hydroxyphenyl)acetamido]-3-(1,2,3-triazol-5-ylthiomethyl)-3-cephem-4-carboxylic acid amorphous monohydrate]
Bio-assay; monohydrate
  Bio-assay: 900-935 units/mg.

## N[C@@H](C(=O)NC1C(=O)N2C(C(=O)O)=C(CSc3cnn[nH]3)CS[C@H]12)c1ccc(O)cc1 (stereo partly drawn) [compound I, 7-[D-α-amino-α-(p-hydroxyphenyl)acetamido]-3-(1,2,3-triazol-5-ylthiomethyl)-3-cephem-4-carboxylic acid]
[5]
  therapeutic effectiveness against infections: therapeutically effective against infections caused by both Gram-positive and Gram-negative organisms
[4]
  solubility in water: relatively low solubility in water
[6]
  splitting off of the triazole moiety at the 3-position: found to split off rapidly at alkaline pH

## CC(=O)CCC(=O)[O-].[Na+] [sodium levulinate]
pH of solution
  pH: 6.5-8.0
physchem
  solubility: > 300 mg/mL

## CC(=O)C(=O)[O-].[Na+] [sodium pyruvate]
pH of solution
  pH: 6.5-8.0
[7]
  solubility: > 500 mg/mL
